Laboratory results reported in patent publication US6576648B2, “Compound with growth hormone releasing properties” (Novo Nordisk A/S, priority 1999, dated 2003).
Each block holds one compound with its values, some of them ahead of it. Non-standard residues stand in square brackets, D forms with d. Residues, ends and D or L forms follow the SMILES beside them.

Legend:
[1] = Oral bioavailability, pharmacokinetics in fasted Beagle dogs; assay type: in vivo; details: intravenous and oral administration in 5% glucose solution
Procedure: The pharmacokinetics of the compound can be investigated in fasted Beagle dogs.
Intravenous and oral administration of the test compound, in 5% glucose solution, was separated by a one weeks washout.
Blood samples were collected immediately before drug administration (time zero) and than 0.08, 0.25, 0.50, 0.75, 1.0, 1.5, 2.0, 3.0, 4.0, 5.0, and 6.0 hours after administration.
The plasma samples were stored frozen (<−18° C.) pending analysis.
An HPLC method with solid phase extraction and UV detection was used for the quantification of the compound in plasma.
The pharmacokinetic parameters for compounds were calculated by non-compartmental methods using the PC based pharmacokinetic software WinNonlin, version 1.1 (Scientific Consulting Inc., Apex, N.C., USA).

[2] = system: endogenous growth hormone release; assay: Release of endogenous growth hormone in vivo
[3] = system: Pancreatic enzyme mix: trypsin, chymotrypsin and elastase; assay: Metabolic stability in pancreatic enzyme mix (ESMS, SIM of molecular ion); details: chymotrypsin and elastase 0.025 mg/ml, 100 mM ammoniumbicarbonate pH 8.0, 37° C., 24 h, decrease in SIM signal
Procedure: (§1) The compound is dissolved at a concentration of 1 mg/ml in water. 25 ml of this solution is added to 175 ml of the respective enzyme-solution (resulting in an enzyme:substrate ratio (w/w) of approximately 1:5). The solution is left at 37° C. overnight. 10 ml of the various degradation solutions is analyzed against a corresponding zero-sample using flow injection electrospray mass spectrometry (ESMS) with selected ion monitoring of the molecular ion. If the signal has decreased more than 20% compared to the zero-sample, the remainder of the solution is analyzed by HPLC and mass spectrometry in order to identify the extent and site(s) of degradation precisely.
(§2) Enzymes (trypsin, chymotrypsin, elastase aminopeptidase M and carboxypeptidase Y and B) were all purchased from Boehringer Mannheim GmbH (Mannheim, Germany) […]
(§3) Quantification of the compound (before and after degradation) was done on the API III instrument using single ion monitoring of the molecular ion in question with flow injection of the analyte. […]
(§4) Identification of degradation products furthermore involved the use of plasma desorption mass spectrometry (PDMS) with sample application on nitrocellulose coated targets and standard instrumental settings. The accuracy of the hereby determined masses is generally better than 0.1%. […]

[4] = system: Carboxypeptidase mix: carboxypeptidase Y and B; assay: Metabolic stability in carboxypeptidase mix (ESMS, SIM of molecular ion); details: carboxypeptidase Y and B 0.025 mg/ml, 50 mM ammoniumacetate pH 4.5, 37° C., 24 h, decrease in SIM signal
Procedure: as §1, §2, §3, §4

- oral availability [1]: about 50%
Compound: CN(C)N(C)C(=O)[C@@]1(Cc2ccccc2)CCCN(C(=O)[C@@H](Cc2c[nH]c3ccccc23)NC(=O)C(C)(C)N)C1 [Example 1, 2-Amino-N-[(1R)-2-[(3R)-3-benzyl-3-(N,N′,N′-trimethylhydrazinocarbonyl)piperidin-1-yl]-1-(1H-indol-3-ylmethyl)-2-oxoethyl]-2-methylpropionamide]
- ability to release endogenous growth hormone in vivo [2]: possess the ability to release endogenous growth hormone in vivo

Compound: C[C@H](NC(=O)[C@@H](Cc1c[nH]c2ccccc12)NC(=O)[C@@H](N)Cc1c[nH]cn1)C(=O)N[C@@H](Cc1c[nH]c2ccccc12)C(=O)N[C@H](Cc1ccccc1)C(=O)N[C@@H](CCCCN)C(N)=O [GHRP-6] (H-H[dW]AW[dF]K-NH2)
- Stability in Pan. Enzyme mix [3]: − (Unstable (more than 20% decrease in SIM signal after 24 h in degradation solution))
- Stability in Carboxypeptidase mix [4]: − (Unstable (more than 20% decrease in SIM signal after 24 h in degradation solution))

Compound: GHRP-2
- Stability in Pan. Enzyme mix [3]: − (Unstable (more than 20% decrease in SIM signal after 24 h in degradation solution))
- Stability in Carboxypeptidase mix [4]: − (Unstable (more than 20% decrease in SIM signal after 24 h in degradation solution))
